Experimental data published in patent publication US8952024B2, “Herbicidal pyrimidone derivatives” (E I du Pont de Nemours and Company, priority 2009, dated 2015).

Columns and labels:
Format in all cases: in vivo
[1] = test system: johnsongrass (Sorghum halepense); experiment: Test B pre-/postemergence plant response
How it was run: (§1)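 Visually scored on a 0 to 100 scale after 13 to 15 days in greenhouse versus controls. Treatments were preemergence on seeded loam/sand soil and postemergence on 1- to 4-leaf plants.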

[2] = test system: velvetleaf (Abutilon theophrasti); experiment: Test B pre-/postemergence plant response
How it was run: as §1

[3] = test system: green foxtail (Setaria viridis); experiment: Test B pre-/postemergence plant response
How it was run: as §1

[4] = test system: soybean (Glycine max); experiment: Test B pre-/postemergence plant response
How it was run: as §1

[5] = test system: downy bromegrass (Bromus tectorum); experiment: Test B pre-/postemergence plant response
How it was run: as §1

[6] = test system: ragweed (common ragweed, Ambrosia elatior); experiment: Test B pre-/postemergence plant response
How it was run: as §1

[7] = test system: morningglory (Ipomoea coccinea); experiment: Test B pre-/postemergence plant response
How it was run: as §1

[8] = test system: goosegrass (Eleusine indica); experiment: Test B pre-/postemergence plant response
How it was run: as §1

[9] = test system: bermudagrass (Cynodon dactylon); experiment: Test B pre-/postemergence plant response
How it was run: as §1

[10] = test system: blackgrass (Alopecurus myosuroides); experiment: Test B pre-/postemergence plant response
How it was run: as §1

[11] = test system: wheat (Triticum aestivum); experiment: Test B pre-/postemergence plant response
How it was run: as §1

[12] = test system: Italian ryegrass (Lolium multiflorum); experiment: Test B pre-/postemergence plant response
How it was run: as §1

[13] = test system: pigweed (Amaranthus retroflexus); experiment: Test B pre-/postemergence plant response
How it was run: as §1

[14] = test system: corn (Zea mays); experiment: Test B pre-/postemergence plant response
How it was run: as §1

[15] = test system: giant foxtail (Setaria faberii); experiment: Test B pre-/postemergence plant response
How it was run: as §1

[16] = test system: chickweed (Stellaria media); experiment: Test B postemergence plant response; details: Postemergence
How it was run: (§2)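 Plants at the 1- to 4-leaf stage (2 to 18 cm tall), grown in pots of peat moss/vermiculite medium with wetting agent and starter nutrients, received postemergence applications of test chemicals. After 13 to 15 days in a greenhouse, injury was rated visually against untreated controls on a 0 (no effect) to 100 (complete control) scale.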

[17] = test system: winter barley (Hordeum vulgare); experiment: Test B postemergence plant response; details: Postemergence
How it was run: as §2

[18] = test system: canarygrass (Phalaris minor); experiment: Test B postemergence plant response; details: Postemergence
How it was run: as §2

[19] = 250 g ai/ha, Preemergence, 0 to 100 scale
[20] = Postemergence, 62 g ai/ha, scale 0 (no effect) to 100 (complete control), 13 to 15 days
[21] = Postemergence, 125 g ai/ha, visual rating after 13 to 15 days, scale 0 (no effect) to 100 (complete control)
[22] = Postemergence, 250 g ai/ha, scale 0 to 100
[23] = Preemergence, 31 g ai/ha, scale 0 to 100 (0 no effect, 100 complete control)
[24] = Preemergence, 62 g ai/ha, scale 0 to 100, 0 no effect, 100 complete control
[25] = Preemergence, 125 g ai/ha, 0 to 100 scale
[26] = Postemergence, 31 g ai/ha, scale 0 to 100 (0 no effect, 100 complete control)
[27] = 31 g ai/ha, scale 0 to 100 (0 no effect, 100 complete control)
[28] = 62 g ai/ha, scale 0 (no effect) to 100 (complete control), 13 to 15 days
[29] = 125 g ai/ha, visual rating after 13 to 15 days, scale 0 (no effect) to 100 (complete control)

Cc1ccc(C)c(-n2c(-c3ccccc3)ncc(C(=O)C3=C(O)CCCC3=O)c2=O)c1 [Compound 29]
10: Plant response rating, Velvetleaf [2, 23] | Plant response rating, Bromegrass, Downy [5, 20] | Plant response rating, Blackgrass [10, 26] | Plant response rating, Wheat [11, 21] | Ryegrass, Italian plant response rating [12, 25] | Plant response rating, Foxtail, Giant [15, 23] | Plant response rating, Canarygrass [18, 27]
35: Plant response rating, Corn [14, 20]
65: Plant response rating, Pigweed [13, 20]
90: Plant response rating, Johnsongrass [1, 19] | Plant response rating, Velvetleaf [2, 24] | Foxtail, Green plant response rating [3, 22] | Soybean plant response rating [4, 25] | Plant response rating, Ragweed [6, 24] | Plant response rating, Bermudagrass [9, 20] | Plant response rating, Bermudagrass [9, 21] | Plant response rating, Foxtail, Giant [15, 20] | Plant response rating, Foxtail, Giant [15, 21]
95: Plant response rating, Soybean [4, 19] | Plant response rating, Soybean [4, 20] | Goosegrass plant response rating [8, 22] | Plant response rating, Goosegrass [8, 23] | Foxtail, Giant plant response rating [15, 22]
85: Plant response rating, Soybean [4, 24] | Plant response rating, Ragweed [6, 20] | Plant response rating, Goosegrass [8, 20] | Plant response rating, Goosegrass [8, 21] | Plant response rating, Bermudagrass [9, 26] | Pigweed plant response rating [13, 22] | Chickweed plant response rating ([16]; 250 g ai/ha, scale 0 to 100)
55: Plant response rating, Velvetleaf [2, 20]
50: Plant response rating, Blackgrass [10, 19] | Blackgrass plant response rating [10, 22] | Blackgrass plant response rating [10, 25] | Plant response rating, Corn [14, 21] | Plant response rating, Foxtail, Giant [15, 24] | Plant response rating, Chickweed [16, 27] | Plant response rating, Chickweed [16, 28] | Plant response rating, Chickweed [16, 29]
0: Plant response rating, Johnsongrass [1, 23] | Plant response rating, Foxtail, Green [3, 23] | Plant response rating, Bromegrass, Downy [5, 23] | Plant response rating, Bromegrass, Downy [5, 24] | Bromegrass, Downy plant response rating [5, 25] | Plant response rating, Wheat [11, 19] | Plant response rating, Wheat [11, 20] | Plant response rating, Wheat [11, 23] | Plant response rating, Wheat [11, 24] | Wheat plant response rating [11, 25] | Plant response rating, Ryegrass, Italian [12, 23] | Plant response rating, Ryegrass, Italian [12, 24] | Plant response rating, Corn [14, 19] | Plant response rating, Corn [14, 23] | Plant response rating, Corn [14, 24] | Corn plant response rating [14, 25] | Plant response rating, Barley [17, 27] | Plant response rating, Barley [17, 28] | Plant response rating, Barley [17, 29] | Barley plant response rating ([17]; 250 g ai/ha, scale 0 to 100)
20: Plant response rating, Johnsongrass [1, 20] | Plant response rating, Soybean [4, 23] | Plant response rating, Blackgrass [10, 20] | Plant response rating, Ryegrass, Italian [12, 20] | Plant response rating, Corn [14, 26] | Plant response rating, Canarygrass [18, 28]
60: Plant response rating, Foxtail, Green [3, 26] | Corn plant response rating [14, 22]
5: Plant response rating, Johnsongrass [1, 24] | Plant response rating, Bromegrass, Downy [5, 19] | Plant response rating, Bromegrass, Downy [5, 26] | Plant response rating, Blackgrass [10, 23] | Plant response rating, Blackgrass [10, 24]
30: Johnsongrass plant response rating [1, 25]
45: Johnsongrass plant response rating [1, 22] | Bromegrass, Downy plant response rating [5, 22] | Ryegrass, Italian plant response rating [12, 22]
100: Plant response rating, Velvetleaf [2, 19] | Velvetleaf plant response rating [2, 25] | Plant response rating, Foxtail, Green [3, 19] | Foxtail, Green plant response rating [3, 25] | Plant response rating, Ragweed [6, 19] | Plant response rating, Ragweed [6, 21] | Ragweed plant response rating [6, 22] | Ragweed plant response rating [6, 25] | Plant response rating, Morningglory [7, 19] | Plant response rating, Morningglory [7, 23] | Plant response rating, Morningglory [7, 24] | Morningglory plant response rating [7, 25] | Plant response rating, Goosegrass [8, 19] | Goosegrass plant response rating [8, 25] | Plant response rating, Bermudagrass [9, 19] | Bermudagrass plant response rating [9, 22] | Plant response rating, Bermudagrass [9, 24] | Bermudagrass plant response rating [9, 25] | Plant response rating, Pigweed [13, 19] | Plant response rating, Pigweed [13, 23] | Plant response rating, Pigweed [13, 24] | Pigweed plant response rating [13, 25] | Plant response rating, Foxtail, Giant [15, 19] | Foxtail, Giant plant response rating [15, 25]
75: Plant response rating, Foxtail, Green [3, 20] | Plant response rating, Foxtail, Green [3, 21]
70: Plant response rating, Morningglory [7, 20]
98: Velvetleaf plant response rating [2, 22] | Plant response rating, Soybean [4, 21] | Soybean plant response rating [4, 22] | Morningglory plant response rating [7, 22] | Plant response rating, Bermudagrass [9, 23]
40: Plant response rating, Johnsongrass [1, 21] | Plant response rating, Foxtail, Green [3, 24] | Plant response rating, Bromegrass, Downy [5, 21] | Plant response rating, Blackgrass [10, 21] | Wheat plant response rating [11, 22] | Plant response rating, Ryegrass, Italian [12, 19] | Plant response rating, Ryegrass, Italian [12, 21] | Plant response rating, Canarygrass [18, 29] | Canarygrass plant response rating ([18]; 250 g ai/ha, scale 0 to 100)
80: Plant response rating, Velvetleaf [2, 21] | Plant response rating, Ragweed [6, 23] | Plant response rating, Morningglory [7, 21] | Plant response rating, Pigweed [13, 21] | Plant response rating, Foxtail, Giant [15, 26]
